Several values for one entry are separate records, joined by “and”; a condition that tells them apart may be missing. Equal entries are not always repeated.
System: EpiSkin (reconstructed human epidermis)
Experiment: In vitro dermal irritation EpiSkin test (MTT viability)
Procedure: The SkinEthic EpiSkin® test system has been validated by OECD test method (439) as an in vitro model to assess skin irritation potential. The test uses human keratinocytes derived from healthy donors, grown in vitro to reconstruct a functional model of the human epidermis.
EpiSkin® units were shipped on transport agar in sterile plates of 12 individual units. Upon delivery, the condition of the EpiSkin® was assessed by checking the pH and temperature indicators. EpiSkin® units were transferred to 12 well plates containing EpiSkin® maintenance medium (2 mL). […] The negative control was Dulbecco's phosphate buffered saline (PBS) and the positive control was an aqueous solution of sodium dodecyl sulphate (SDS, 5%, w/v).
The formulations were applied to the skin “without dilution”. An aliquot (10 μL) of the undiluted formulations and control substances were applied to three replicate EpiSkin® tissues using a positive displacement pipette. The formulations and controls were gently spread over the entire surface of the exposed skin using the applicator tip.
The EpiSkin® was exposed to the formulations and control substances for 15 min±30 s. The EpiSkin® surface was then rinsed with PBS (ca 25 mL) and returned to a well containing fresh Maintenance Medium (2 mL). […]
After the recovery period, EpiSkin® units were tapped dry and transferred to wells containing a solution of MTT in EpiSkin Assay Medium (2 mL, 0.3 mg/mL). […] The cell viability of each tissue was calculated from optical density absorption readings with reference to the negative controls, which were assigned the nominal value of 100% viability.
Standard statistical techniques were used to calculate ODblank mean: the average OD of the blank (acidified isopropanol containing) wells. The corrected OD for each sample or control was calculated by subtracting the value of ODblank mean from each reading: ODcorrected=ODraw−ODblank mean
The % Viability for each sample and positive control was calculated as follows: % Viability=(ODcorrected/mean ODnegative controls)×100 […]

CCCCCCCCCCCCOS(=O)(=O)[O-].[Na+] [Aqueous SDS Solution (5%, w/v), sodium dodecyl sulphate]
Mean Relative Viability per Treatment (%) (mean of three tissues, irritant (GHS category 2) if viability is 50% or less): 23.36%
Mean Relative Viability per Tissue (%) (per replicate tissue (Rep 1-3), 15 min exposure, 42 h recovery, sulphate): 19.00% and 36.63% and 14.46%
Relative Viability (%) (single readings, two per replicate tissue (Rep 1-3), 10 μL undiluted, 15 min exposure, 42 h recovery, negative control = 100%, sulphate): 19.05% and 18.95% and 36.18% and 37.08% and 13.81% and 15.12%
